Results on eight compounds are retold here after PubChem BioAssay AID2060495 (Molecular Pharmacology Branch, DTP, NCI, 2025).

The assay relates to 521955-158-R2-J5-PDC complex spheroid viability. The assay can be described thus: Anticancer human tumor 521955-158-R2-J5-PDC patient-derived pancreatic carcinoma cell line growth inhibition [GQUAD]. Particulars: for viability, T/C: stronger effect = lower value. The source says:
DNA G-quadruplex Stabilizer Agents in Combinations in Complex Spheroids
A high-throughput screen of multi-cell type tumor spheroids was designed to identify active combinations of DNA G-quadruplex stabilizer agents and targeted small molecules. Complex spheroids include a stromal component modeled by human endothelial cells (HUVEC) and fibroblasts modeled by human mesenchymal stem cells (MSCs). The concentration ranges selected for each drug and investigational agent were based upon clinically achievable concentrations if the clinical Cmax of the agent was known.
Compounds. The drugs and investigational agents: pidnarulex (CX-5461; NSC782164), APTO-253 (NSC789042), BRACO-19 (NSC847499), peposertib (NSC802822), ceralasertib (NSC780249), elimusertib (NSC800525), camonsertib (NSC841442), AZD-1390 (NSC803789), olaparib (NSC753686), talazoparib (NSC767125), ART-558 (NSC835418), sotorasib (NSC818433), MRTX-1133 (NSC836407), SN-38 (NSC673596), topotecan (NSC609699), etoposide (NSC141540), doxorubicin (NSC123127), gemcitabine (NSC613327), 5-fluorouracil (NSC19893), paclitaxel (NSC125973), vemurafenib (NSC761431), panobinostat (NSC761190), R-306465 (JNJ-16241199; NSC773264), adavosertib (NSC754352), TP-3654 (NSC805149), carboplatin (NSC241240), KSQ-4279 (NSC840948), and staurosporine (NSC755774) were obtained from the National Cancer Institute (NCI) Developmental Therapeutics Program Chemical Repository (34). The FDA-approved anticancer drug set is available from the NCI Developmental Therapeutics Program. […] The stock solutions were prepared in dimethyl sulfoxide (DMSO, Sigma-Aldrich, St. Louis, MO, cat. D2650) at 800-fold the tested concentration and stored at -70 degrees C prior to their use. All drugs and investigational agents were tested over a range starting from a high concentration at or near the clinical Cmax and decreasing in half-log increments. If the clinical Cmax for an agent had not been determined, the highest concentration tested was 10 microM.
2.3 Cell Culture. All cells were maintained in an incubator at 37 degrees C and 5% CO2 with 95% humidity. The PDC lines were cultured according to standard operating procedures established by the NCI PDMR. All PDCs were thawed and cultured in Matrigel-coated flasks prepared with a working solution of 1X Ham's F-12 nutrient mix, without supplementation (Invitrogen, cat. 11765054), 100 U/mL penicillin-streptomycin (Invitrogen, cat. 15140122), and 2.5% Matrigel (Corning Inc., cat. 354248) for the first three passages. The 857933-349-R-J2-PDC line was cultured in 6C/Colon 1B media, which includes advanced DMEM/F-12 (Thermo Fisher Scientific, cat. 12634028), 10 mM HEPES (Thermo Fisher Scientific, cat. 15630080), 1X GlutaMAX supplement (Thermo Fisher Scientific, cat. 35050061), 0.1 mg/mL primocin (InvivoGen, cat. ant-pm-2), 10% defined fetal bovine serum, heat inactivated (HyClone Laboratories Inc., cat. SH30070.03HI), 50% L-WRN conditioned media (ATCC, cat. CRL-3276), 1.25 mM N-Acetyl-L-cysteine (Sigma-Aldrich, cat. A9165), 10 mM nicotinamide (Sigma-Aldrich, cat. N0636), 1X B-27 supplement (Thermo Fisher Scientific, cat. 17504044), 1X N-2 supplement (Thermo Fisher Scientific, cat. 17502048), 10 microM Y-27632 dihydrochloride (Tocris Bioscience, cat. 1254), and 50 ng/mL human EGF recombinant protein (Thermo Fisher Scientific, cat. PHG0311). The 485176-168-R4-J1-PDC line was cultured in Panc media, which includes all 6C/Colon 1B media components plus 100 ng/mL human FGF-10 (Thermo Fisher Scientific, cat. 100-26), 500 nM SB-431542 (Selleckchem, cat. S1067), and gastrin (Tocris, cat. 3006).
[…]

Molecules are shown by their SMILES. Where “and” joins values, the source holds several entries; their conditions need not be identical. Equal entries are not always repeated. Bounds are passed on as bounds.
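Also: spheroids exposed to agents for one week before reading.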

Turning to `CC(C)n1c(=O)n(C)c2cnc3cc(F)c(-c4ccc(OCCCN5CCCCC5)nc4)cc3c21` + CN(C)c1ccc(Nc2c3ccc(NC(=O)CCN4CCCC4)cc3nc3cc(NC(=O)CCN4CCCC4)ccc23)cc1, the IC50 (commonly the concentration at which inhibition is half-maximal) (curve of first compound, second compound 0.0316 µM) is greater than 10000 nM; the IC50 (curve of first compound, second compound 0.1 µM) is greater than 10000 nM; the 50% inhibitory concentration (IC50) (curve of first compound, second compound 0.316 µM) was greater than 10000 nM; the IC50 (curve of first compound, second compound 1 µM) is greater than 10000 nM; the IC50 (curve of first compound, second compound 3.16 µM) turned out to be 8350 nM; the IC50 (curve of first compound, second compound 10 µM) was 288 nM. Besides, the viability, T/C (as a rule, the ratio of treated to control) (second compound 0.0316 µM, first compound 0.0316 µM) is 117%; the viability, T/C (second compound 0.0316 µM, first compound 0.1 µM) was 108%; the viability, T/C (second compound 0.0316 µM, first compound 0.316 µM) was 110%; the viability, T/C (second compound 0.0316 µM, first compound 1 µM) is 93.5%; the viability, T/C (second compound 0.0316 µM, first compound 3.16 µM) was 115%; the viability, T/C (second compound 0.0316 µM, first compound 10 µM) is 109%. In addition, the viability, T/C (second compound 0.1 µM, first compound 0.0316 µM) is 98.6%; the viability, T/C (second compound 0.1 µM, first compound 0.1 µM) was 105%; the viability, T/C (second compound 0.1 µM, first compound 0.316 µM) is 101%; the viability, T/C (second compound 0.1 µM, first compound 1 µM) is 95.3%; the viability, T/C (second compound 0.1 µM, first compound 3.16 µM) is 116%; the viability, T/C (second compound 0.1 µM, first compound 10 µM) was 106%. For the same compound, the viability, T/C is, setting by setting: (second compound 0.316 µM, first compound 0.0316 µM) 101%; (second compound 0.316 µM, first compound 0.1 µM) 103%; (second compound 0.316 µM, first compound 0.316 µM) 91%; (second compound 0.316 µM, first compound 1 µM) 107%; (second compound 0.316 µM, first compound 3.16 µM) 115%; (second compound 0.316 µM, first compound 10 µM) 85.2%. The viability, T/C by setting is: (second compound 1 µM, first compound 0.0316 µM) 112%; (second compound 1 µM, first compound 0.1 µM) 90.2%; (second compound 1 µM, first compound 0.316 µM) 77%; (second compound 1 µM, first compound 1 µM) 96.8%; (second compound 1 µM, first compound 3.16 µM) 97.5%; (second compound 1 µM, first compound 10 µM) 86%. The viability, T/C (second compound 3.16 µM, first compound 0.0316 µM) was 101%; the viability, T/C (second compound 3.16 µM, first compound 0.1 µM) was 81%; the viability, T/C (second compound 3.16 µM, first compound 0.316 µM) was 63.6%; the viability, T/C (second compound 3.16 µM, first compound 1 µM) was 63.7%; the viability, T/C (second compound 3.16 µM, first compound 3.16 µM) was 55.1%; the viability, T/C (second compound 3.16 µM, first compound 10 µM) was 46.7%. Also, the viability, T/C reads like this: (second compound 10 µM, first compound 0.0316 µM) 64%; (second compound 10 µM, first compound 0.1 µM) 57%; (second compound 10 µM, first compound 0.316 µM) 51.2%; (second compound 10 µM, first compound 1 µM) 34.8%; (second compound 10 µM, first compound 3.16 µM) 22%; (second compound 10 µM, first compound 10 µM) 5.89%.
On to `O=C(c1cc(Cc2n[nH]c(=O)c3ccccc23)ccc1F)N1CCN(C(=O)C2CC2)CC1`, for which the viability, T/C is 96.2% and 106% and 90.6% (compound 0.0316 µM); 93.6% and 88.4% and 70.8% (compound 0.1 µM); 85.3% and 86.5% and 89.5% (compound 0.316 µM); 65.6% and 88% and 66.8% (compound 1 µM); 89.8% and 92.1% and 83.6% (compound 3.16 µM); 91.2% and 81.6% and 80.2% (compound 10 µM). Moreover, the IC50 (curve of compound) is greater than 10000 nM.
`O=c1[nH]cc(F)c(=O)[nH]1`: the viability, T/C (compound 0.0316 µM) was 86.1% and 107% and 116%; the viability, T/C (compound 0.1 µM) was 86% and 88.3% and 87.4%; the viability, T/C (compound 0.316 µM) was 89.2% and 109% and 92.6%; the viability, T/C (compound 1 µM) is 80% and 99% and 101%; the viability, T/C (compound 3.16 µM) was 47.1% and 45% and 102%; the viability, T/C (compound 10 µM) was 20.3% and 18.2% and 54.8%. The IC50 (curve of compound) was 2850 nM and 2840 nM and > 10000 nM.
On to `CC1COCCN1c1cc(C2(O)CC3CCC(C2)O3)c2cnn(-c3ccn[nH]3)c2n1` (stereo not given), for which the viability, T/C runs as follows: (compound 0.0316 µM) 32.7% and 40.2% and 58%; (compound 0.1 µM) 11% and 10.8% and 17.1%; (compound 0.316 µM) 11.7% and 12.3% and 23.7%; (compound 1 µM) 15.8% and 17.1% and 31.5%; (compound 3.16 µM) 19.6% and 19% and 32.1%; (compound 10 µM) 6.3% and 8.53% and 21.2%. The IC50 (curve of compound) is < 31.6 nM and 41.8 nM.
As to `C#Cc1c(F)ccc2cc(O)cc(-c3ncc4c(N5CC6CCC(C5)N6)nc(OCC56CCCN5CC(F)C6)nc4c3F)c12` (stereo not given), the viability, T/C reads like this: (compound 0.0316 µM) 40.9% and 72.8% and 65.6%; (compound 0.1 µM) 32.6% and 85% and 56.9%; (compound 0.316 µM) 31.2% and 57.2% and 57.9%; (compound 1 µM) 24.3% and 54.7% and 39.5%; (compound 3.16 µM) 27.9% and 53.1% and 48.7%; (compound 10 µM) 17.8% and 37.3% and 35.5%.
With `C=CC(=O)N1CCN(c2nc(=O)n(-c3c(C)ccnc3C(C)C)c3nc(-c4c(O)cccc4F)c(F)cc23)C(C)C1` (stereo not given), the viability, T/C is, setting by setting: (compound 0.0316 µM) 86.9% and 107% and 102%; (compound 0.1 µM) 95.5% and 94.6% and 97.9%; (compound 0.316 µM) 84.9% and 115% and 119%; (compound 1 µM) 110% and 98.3% and 102%; (compound 3.16 µM) 109% and 115% and 123%; (compound 10 µM) 91% and 91.9% and 80.9%. Further, the IC50 (curve of compound) was greater than 10000 nM.
`CC1COCCN1c1cc(C2(S(C)(=N)=O)CC2)nc(-c2ccnc3[nH]ccc23)n1` (stereo not given): the viability, T/C reads like this: (compound 0.0316 µM) 109% and 97.3% and 99.7%; (compound 0.1 µM) 100% and 91% and 89.6%; (compound 0.316 µM) 97.3% and 109% and 127%; (compound 1 µM) 28% and 45.5% and 25.8%; (compound 3.16 µM) 9.05% and 14.9% and 6.37%; (compound 10 µM) 11.1% and 16.7% and 11.6%. Also, the IC50 (curve of compound) was 693 nM and 909 nM and 705 nM.
For the compound `O=C(NO)c1cnc(N2CCN(S(=O)(=O)c3ccc4ccccc4c3)CC2)nc1`, the viability, T/C is 120% and 129% and 128% (compound 0.0316 µM); 106% and 103% and 98.8% (compound 0.1 µM); 97.3% and 66.4% and 48.3% (compound 0.316 µM); 42.6% and 28.9% and 15% (compound 1 µM); 0.27% and 0.42% and 0.06% (compound 3.16 µM); 0.25% and 0.27% and 0.09% (compound 10 µM). In addition, the IC50 (curve of compound) is 838 nM and 501 nM and 307 nM.
